In ChEMBL document CHEMBL1909569 (Bioorg Med Chem Lett, 2011):
pIC50: −log10 of the molar value.

Legend:
[1] = system: Mycobacterium tuberculosis; assay: (§1) Inhibition of Mycobacterium tuberculosis expressing RNA polymerase RpoB S450L mutant after 10 mins using ribo green by rolling circle transcription assay
[2] = as §1
[3] = system: Mycobacterium tuberculosis; assay: Ratio of compound MIC90 to Rifampin S MIC90 for Mycobacterium tuberculosis RNA polymerase RpoB S450L mutant
[4] = system: Mycobacterium tuberculosis; assay: Ratio of compound MIC90 to Rifamycin S MIC90 for Mycobacterium tuberculosis RNA polymerase RpoB S450L mutant

## CO[C@H]1/C=C/O[C@@]2(C)Oc3c(C)c(O)c4c(c3C2=O)C(=O)C=C(NC(=O)/C(C)=C\C=C\[C@H](C)[C@H](O)[C@@H](C)[C@@H](O)[C@@H](C)[C@H](OC(C)=O)[C@@H]1C)C4=O [RIFAMYCIN S]
[1]
  logIC50: 1.56
[2]
  pIC50: 4.44

## CO[C@H]1/C=C/O[C@@]2(C)Oc3c(C)c(N)c4c(c3C2=O)C(=O)C=C(NC(=O)/C(C)=C\C=C\[C@H](C)[C@H](O)[C@@H](C)[C@@H](O)[C@@H](C)[C@H](OC(C)=O)[C@@H]1C)C4=O
[1]
  logIC50: 2.27
[2]
  pIC50: 3.73
[3]
  Ratio IC50: 3

## CO[C@H]1/C=C/O[C@@]2(C)Oc3c(C)c(SC)c4c(c3C2=O)C(=O)C=C(NC(=O)/C(C)=C\C=C\[C@H](C)[C@H](O)[C@@H](C)[C@@H](O)[C@@H](C)[C@H](OC(C)=O)[C@@H]1C)C4=O
[1]
  logIC50: 1.57
[2]
  pIC50: 4.43

## CO[C@H]1/C=C/O[C@@]2(C)Oc3c(C)c(OS(=O)(=O)c4ccc(C)cc4)c4c(c3C2=O)C(=O)C=C(NC(=O)/C(C)=C\C=C\[C@H](C)[C@H](O)[C@@H](C)[C@@H](O)[C@@H](C)[C@H](OC(C)=O)[C@@H]1C)C4=O
[1]
  logIC50: 2.99
[2]
  pIC50: 3.01
[4]
  Ratio: 5

## CO[C@H]1/C=C/O[C@@]2(C)Oc3c(c4c5c(nn(CCO)c5c3C)C(=C(/C=N/N3CCN(C)CC3)C4=O)NC(=O)/C(C)=C\C=C\[C@H](C)[C@H](O)[C@@H](C)[C@@H](O)[C@@H](C)[C@H](OC(C)=O)[C@@H]1C)C2=O
[1]
  logIC50: 1.48
[2]
  pIC50: 4.52

## CO[C@H]1/C=C/O[C@@]2(C)Oc3c(C)c(N(C)C)c4c(c3C2=O)C(=O)C=C(NC(=O)/C(C)=C\C=C\[C@H](C)[C@H](O)[C@@H](C)[C@@H](O)[C@@H](C)[C@H](OC(C)=O)[C@@H]1C)C4=O
[1]
  logIC50: 2.43
[2]
  pIC50: 3.57
[3]
  Ratio IC50: 3

## CO[C@H]1/C=C/O[C@@]2(C)Oc3c(C)c(O)c4c(c3C2=O)C(=O)C(/C=N/N2CCN(C)CC2)=C(NC(=O)/C(C)=C\C=C\[C@H](C)[C@H](O)[C@@H](C)[C@@H](O)[C@@H](C)[C@H](OC(C)=O)[C@@H]1C)C4=O [RIFAMPIN S]
[1]
  logIC50: 1.67
[2]
  pIC50: 4.33

## CO[C@H]1/C=C/O[C@@]2(C)Oc3c(C)c(NC4CCCCCC4)c4c(c3C2=O)C(=O)C=C(NC(=O)/C(C)=C\C=C\[C@H](C)[C@H](O)[C@@H](C)[C@@H](O)[C@@H](C)[C@H](OC(C)=O)[C@@H]1C)C4=O
[1]
  logIC50: 2.1
[2]
  pIC50: 3.90
[3]
  Ratio IC50: 3
